# According to patent publication US20160272953A1, “Activated Sugars” (ZuChem, Inc., priority 2010, published 2016):
# Key:
# [1] = target: T1, wild-type P. furiosus enzyme (Pyrococcus furiosus, UniProt Q9HHB6); test: GalK activity by ATP to ADP conversion (HPLC), wild-type enzyme; type: biochemical; details: 200 mM sugar, 100 mM ATP, 1 ug/ml enzyme, 60° C., 20 hours
# T1 construct: 6-His (N); made in house; host or cells: E. coli
# Procedure: The reaction of sugars with the wild type and mutant sugar-1-kinse such as those from Pyrococcus furiousus can also be monitored by following ATP consumption in the reaction. The amount of ATP consumption directly correlates with the amount of sugar-1-kinase produced. For example, to produce additional sugar-1-phosphates a series of experiments were carried out as follows, In a reaction mix containing 50 mM sodium phosphate buffer at pH 7.5, 100 mM ATP, 200 mM of the sugar being tested, 5mM MgC12 either 1 ug/ml of either the PK27 mutant or wild-type P. furiosus enzyme were added. The reaction was incubated at 60° C. for 20 hours. ATP and ADP concentrations were analyzed by HPLC using a Supelcosil LC-18-T column with a flow rate of 1.0 mL/min of 0.05 M. KH2P04/4 mM tetrabutylammonium hydrogen sulfate and a linear gradient solvent program of 0-30% methanol over 30 min. The percent conversion of ATP to ADP was calculated. Sugar-1-phosphate was analyzed by HPLC using Supelcosil LC-SAX column 0.05 M K-phosphate buffer, pH 6.0
# GalK activity by ATp to ADp conversion, 20 h. Percentages indicate degree reaction proceeded to completion within 20 hours.
# E. coli GalKMLYH = target: T2, E. coli GalKMLYH (Escherichia coli, UniProt P0A6T3, D325E/M173L/Y371H); test: GalKMLYH conversion of L-sugars at 16° C.; type: biochemical; details: 5 hrs of incubation, partially purified cell extract
# T2 construct: made in house; host or cells: E. coli
# Procedure: The GalKMLYH enzyme was finally tested at 16° C. for the conversion of several other L-sugars using partially purified cell extract from the overexpressing E. coli strain and typical reaction conditions.
# [2] = system: Sugar-1-kinase-P and nucleotidyltransferase-S; test: One-pot coupled sugar-1-kinase / nucleotidyltransferase reaction (TLC); type: biochemical; details: for conversion to dTDP-sugar, estimated by TLC: dTTP 8 mM as nucleotide donor
# Procedure: (§1) Initial coupling of the reaction was tested for 1-pot synthesis of NDP-sugars. The reaction was started with 12 mM ATP, 3.5 mM MgCl2, and 8 mM of either L-Glucose or D-galactose. Partially purified Sugar-1-kinase-P was added to the mixture and a sample was taken at 0 and 60 minutes. After 60 minutes, dTTP or UTP (8 mM), 20 μL nucleotidyltransferase-S, and 2 μL of commercially available thermostable pyrophosphatase were added to the reaction and samples were taken at different time points and analyzed by TLC as shown in FIG. 7-1. […] Upon addition of the second enzyme and nucleotide, the formation of dTDP-D-galactose and dTDP-L-glucose began. The sugar nucleotides were more clearly visualized by UV, but can also been seen in the KMnO4 stained TLC plates in FIG. 6-1.
# The conversion is estimated to be greater than 80% based on the loss of Gal-1-P and appearance of dTDP-Gal on TLC. The reaction with L-glucose and dTTP was also successful, however, the conversion was lower and estimated to be 20% by TLC.
# [3] = target: engineered E. coli GalKMLYH (Escherichia coli, UniProt P0A6T3, D325E/M173L/Y371H); details: substrate 1.5 g/L, purified enzyme 0.6 g/L; cited from earlier work
# WT Sugar-1-kinase-P = target: T3, WT Sugar-1-kinase-P (Pyrococcus furiosus, UniProt Q9HHB6); test: Substrate specificity of purified WT Sugar-1-kinase-P (DNS assay); type: biochemical; details: 8 mM sugar, 2.4 mg/ml enzyme, 12 mM ATP, 5 mM MgCl2, pH 7.5 phosphate buffer
# T3 construct: 6-His (N); made in house; host or cells: E. coli
# T3 sequence (Q9HHB6 whole entry): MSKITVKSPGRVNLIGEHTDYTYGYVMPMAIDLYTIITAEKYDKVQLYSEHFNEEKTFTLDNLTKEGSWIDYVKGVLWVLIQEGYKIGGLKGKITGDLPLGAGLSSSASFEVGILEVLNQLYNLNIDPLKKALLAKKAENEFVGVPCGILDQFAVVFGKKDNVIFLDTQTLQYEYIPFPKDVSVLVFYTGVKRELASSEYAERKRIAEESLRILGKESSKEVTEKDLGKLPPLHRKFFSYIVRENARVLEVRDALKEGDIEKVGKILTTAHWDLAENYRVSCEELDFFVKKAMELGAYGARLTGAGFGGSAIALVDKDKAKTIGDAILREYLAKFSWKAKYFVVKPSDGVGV
# Procedure: Often, when applying protein engineering to activity on a new substrate the resulting enzyme has relaxed substrate specificity which we wanted to achieve. The purified Sugar-1-kinase-PK27 was then tested for the conversion of a variety of sugars and compared to purified WT Sugar-1-kinase-P. The reactions were setup with 8 mM of different sugars (L-ribose, L-galactose, L-glucose, L-arabinose, L-xylose, L-rhamnose, L-mannose, L-gulose, L-fucose, and 6-Azido-D-galactose), 2.4 mg/ml enzyme, 12 mM ATP, and 5 mM MgCl2 in pH 7.5 phosphate buffer. Samples were taken every hour and analyzed by DNS assay (FIG. 4-5A).
# Sugar-1-kinase-P = test: One-pot reaction, first step: phosphorylation by Sugar-1-kinase-P (DNS assay, TLC); type: biochemical, Pyrococcus furiosus; details: 8 mM sugar, 12 mM ATP, first 60 minutes
# Procedure: as §1
# Sugar-1-kinase-S = test: Time course conversion of alternative substrates by Sugar-1-kinase-S; type: biochemical, Streptococcus thermophilus; details: 45° C., ~300 minutes, partially purified cell extract
# nucleotidyltransferase-S = test: Nucleotidyltransferase-S activity with Gal-1-P and dTTP (TLC and malachite green); type: biochemical, Streptococcus thermophilus; details: 7 mM Gal-1-P, 7 mM dTTP, 0.1 U pyrophosphatase
# Procedure: The nucleotidyltransferase-S enzyme was chosen for further study due to its high expression in E. coli. Nucleotidyltransferase activity was measured with the commercially available substrate D-galactose-1-phosphate (Gal-1-P). This is not the natural substrate of homologous nucleotidyltransferases, which is D-glucose-1-phosphate. Nucleotidyltransferase-S was incubated with 7 mM Gal-1-P, 7 mM dTTP, and 0.1 U of pyrophosphatase. The reaction was monitored by two different methods. […] The second method of assay was a malachite green based inorganic phosphate assay. When dTTP is coupled to a Sugar-1-phosphate it releases pyrophosphate which is broken down to pyrophosphatase to 2 molecules of inorganic phosphate.
# EP-P2 [4] = test: Nucleotidylyltransferase substrate specificity by TLC, EP-P2; type: biochemical, P. furiousus; details: 90° C., 6 mM substrate
# From the text: (§2) A fourth nucleotidlylytransferaseenzyme has been cloned from P. furiousus (EP-P2) that has previously been shown capable of converting the only commercially available L-sugar-1-phosphate (L-fucose-1-P),[47] transferring 82% to produce UDP-L-Fucose as determined by ESI-MS. EP-P2 additionally has a broad activity range on 6 other D-sugar-1-phosphates. This enzyme was cloned as a His-tag fusion and purified by IMAC. Since we had 4 different enzymes (EP-S, EP-T, EP-P, and EP-P2) with different characteristics and substrate specificities, experiments were designed to test the substrate specificities on purified nucleotidlylytransferase enzyme and pure substrates. Reactions with each of the 4 nucleotidlylytransferase enzymes were set up using 4 different sugar-1-phosphates and 2 different nucleotides (32 reactions total), with each enzyme incubated near its optimal temperature. In a total volume of 200 μL the reactions contained 25 μL of purified enzyme, 5 mM MgCl2, 6 mM nucleotide, 6 mM sugar-1-phosphate, 4 U thermophilic pyrophosphatase (commercially available). The 4 sugar-1-phosphates were D-glucose-1-phosphate, L-glucose-1-phosphate, D-galactose-1-phosphate, and D-mannose-1-phosphate, while the 2 nucleotides chosen were dTTP and UTP. EP-P and EP-P2 were incubated at 90° C., EP-T at 65° C., and EP-S at 45° C. Samples were taken at the time of enzyme addition and every hour for three hours and then analyzed by TLC using 80% aqueous acetonitrile +10 mM TBAHS; visualized by UV and stained in KMnO4.
# The UV visible spots were circled in black for FIG. 6-3 to aid in visualization as only the nucleotides and nucleotide-activated sugars are UV active. The upper left plates show TLC of standard compounds. […] To our knowledge these are the first examples of commercially viable dTDP-L-glucose enzymatic production. […] EP-S had good activity on both D-glu-1P and D-mann-1P. EP-P and EP-T both were only active on D-glucose-1P with UTP as the nucleotide. […] Furthermore, many of the reactions proceeded to completion by the first time point analyzed.
# EP-P = test: Nucleotidylyltransferase substrate specificity by TLC, EP-P; type: biochemical, Pyrococcus furiosus; details: UTP, 90° C., 6 mM substrate
# From the text: as §2, with “In a total volume of 200 μL the reactions contained 25 μL of purified enzyme, 5 mM MgCl2, 6 mM nucleotide, 6 mM sugar-1-phosphate, 4 U thermophilic pyrophosphatase (commercially available). The 4 sugar-1-phosphates were D-glucose-1-phosphate, L-glucose-1-phosphate, D-galactose-1-phosphate, and D-mannose-1-phosphate, while the 2 nucleotides chosen were dTTP and UTP. EP-P and EP-P2 were incubated at 90° C., EP-T at 65° C., and EP-S at 45° C.” left out
# (§3) The UV visible spots were circled in black for FIG. 6-3 to aid in visualization as only the nucleotides and nucleotide-activated sugars are UV active. […] Furthermore, many of the reactions proceeded to completion by the first time point analyzed.
# EP-T = test: Nucleotidylyltransferase substrate specificity by TLC, EP-T; type: biochemical, Thermus thermophilus; details: 65° C., 6 mM substrate
# From the text: as §2, with “In a total volume of 200 μL the reactions contained 25 μL of purified enzyme, 5 mM MgCl2, 6 mM nucleotide, 6 mM sugar-1-phosphate, 4 U thermophilic pyrophosphatase (commercially available). The 4 sugar-1-phosphates were D-glucose-1-phosphate, L-glucose-1-phosphate, D-galactose-1-phosphate, and D-mannose-1-phosphate, while the 2 nucleotides chosen were dTTP and UTP. EP-P and EP-P2 were incubated at 90° C., EP-T at 65° C., and EP-S at 45° C.” left out
# as §3
# EP-S = test: Nucleotidylyltransferase substrate specificity by TLC, EP-S; type: biochemical, Streptococcus thermophilus; details: UTP, 45° C., 6 mM substrate
# From the text: as §2, with “In a total volume of 200 μL the reactions contained 25 μL of purified enzyme, 5 mM MgCl2, 6 mM nucleotide, 6 mM sugar-1-phosphate, 4 U thermophilic pyrophosphatase (commercially available). The 4 sugar-1-phosphates were D-glucose-1-phosphate, L-glucose-1-phosphate, D-galactose-1-phosphate, and D-mannose-1-phosphate, while the 2 nucleotides chosen were dTTP and UTP. EP-P and EP-P2 were incubated at 90° C., EP-T at 65° C., and EP-S at 45° C.” left out
# as §3
# EP-P2 [5] = details: determined by ESI-MS; cited from earlier work
# T1 sequence (Q9HHB6 whole entry): as above
smiles,measurement,setting,value
C[C@H](O)[C@@H](O)[C@@H](O)[C@H](O)C=O [L-fucose],"degree reaction proceeded to completion (ATP to ADP conversion), WT Pyrococcus furiosus",[1],40%
same,activity of GalK mutant on substrate,E. coli GalKMLYH,did not display significant activity
O=c1ccn([C@@H]2O[C@H](COP(=O)(O)OP(=O)(O)OP(=O)(O)O)[C@@H](O)[C@H]2O)c(=O)[nH]1 [UTP],outcome as alternative nucleotide donor,"[2]; 8 mM, one-pot coupled reaction",did not result in a successfully coupled reaction
O=C[C@@H](O)[C@H](O)[C@@H](O)[C@@H](O)CO [L-glucose],conversion to 1-phosphate,[3],25%
same,activity on sugar,WT Sugar-1-kinase-P,displayed activity
same,conversion to sugar-1-phosphate,Sugar-1-kinase-P,completely converted
same,"conversion to dTDP-sugar, estimated by TLC",[2],~20%
same,reaction completion,Sugar-1-kinase-S,95-100%
same,activity of GalK mutant on substrate,E. coli GalKMLYH,did not display significant activity
O=C[C@@H](O)[C@H](O)[C@@H](O)CO [L-xylose],activity of GalK mutant on substrate,E. coli GalKMLYH,did not display significant activity
C[C@H](O)[C@H](O)[C@@H](O)[C@@H](O)C=O [L-rhamnose],activity of GalK mutant on substrate,E. coli GalKMLYH,did not display significant activity
O=C[C@@H](O)[C@@H](O)[C@@H](O)CO [L-ribose],activity of GalK mutant on substrate,E. coli GalKMLYH,did not display significant activity
O=C[C@@H](O)[C@@H](O)[C@H](O)[C@@H](O)CO [L-gulose],activity of GalK mutant on substrate,E. coli GalKMLYH,did not display significant activity
O=C[C@H](O)[C@H](O)[C@@H](O)[C@@H](O)CO [L-mannose],activity of GalK mutant on substrate,E. coli GalKMLYH,did not display significant activity
O=C[C@H](O)[C@@H](O)[C@H](O)CO [D-xylose],"degree reaction proceeded to completion (ATP to ADP conversion), WT Pyrococcus furiosus",[1],50%
O=P(O)(O)O[C@H]1O[C@H](CO)[C@H](O)[C@H](O)[C@H]1O [D-galactose-1-phosphate],activity with substrate,nucleotidyltransferase-S,active
"O=P(O)(O)OC1OC(CO)C(O)C(O)C1O [L-glu-1P, L-glucose-1-phosphate]",activity on sugar-1-phosphate,EP-P2 [4]; UTP,did not appear to appreciably convert
same,activity on sugar-1-phosphate,EP-P2 [4]; dTTP,showed activity
O=C[C@H](O)[C@@H](O)[C@@H](O)[C@H](O)CO [D-Galactose],conversion to sugar-1-phosphate,Sugar-1-kinase-P,completely converted
same,"degree reaction proceeded to completion (ATP to ADP conversion), WT Pyrococcus furiosus",[1],90%
same,"conversion to dTDP-sugar, estimated by TLC",[2],greater than 80%
"O=P(O)(O)O[C@H]1O[C@H](CO)[C@@H](O)[C@H](O)[C@H]1O [D-glu-1P, D-glucose-1-phosphate]",activity on sugar-1-phosphate,EP-P,only active
same,activity on sugar-1-phosphate,EP-T; UTP,only active
same,activity on sugar-1-phosphate,EP-T; dTTP,converted
same,activity on sugar-1-phosphate,EP-S,good activity
same,activity on sugar-1-phosphate,EP-P2 [4]; dTTP,showed activity
O=C[C@H](O)[C@@H](O)[C@@H](O)CO [L-arabinose],activity of GalK mutant on substrate,E. coli GalKMLYH,did not display significant activity
"O=P(O)(O)O[C@H]1O[C@H](CO)[C@@H](O)[C@H](O)[C@@H]1O [D-mannose-1P, D-mannose-1-phosphate]",activity on sugar-1-phosphate,EP-S,good activity
same,activity on sugar-1-phosphate,EP-P2 [4]; dTTP,showed activity
O=C[C@@H](O)[C@@H](O)[C@H](O)[C@H](O)CO [D-mannose],"degree reaction proceeded to completion (ATP to ADP conversion), WT Pyrococcus furiosus",[1],54%
C[C@@H]1O[C@H](OP(=O)(O)O)[C@@H](O)[C@H](O)[C@@H]1O [L-fucose-1-P],transfer to UDP-L-Fucose,EP-P2 [5],82%
C[C@@H](O)[C@H](O)[C@H](O)[C@@H](O)C=O [D-fucose],"degree reaction proceeded to completion (ATP to ADP conversion), WT Pyrococcus furiosus",[1],78%
